Reference: US20260207537A1, “PHARMACEUTICAL COMPOSITION FOR PREVENTION AND TREATMENT OF AORTIC ANEURYSM, AND PROCESSED FOOD” (priority 2020, published 2026)

What was measured:
[1] = tested on: abdominal aortic aneurysm; assay: Abdominal aortic aneurysm induction model, preventive forced administration (Examples 1 and 2); assay type: in vivo, rat; details: for Rupture rate of abdominal aortic aneurysm: among rats with observed aneurysm, control group 28.6; for Rupture confirmed (abdominal aortic aneurysm) / Rupture not confirmed (abdominal aortic aneurysm): number of rats among rats with observed aneurysm; for Survival rate: Example 2, FIG. 1; for Diameter of the aorta in the abdominal aortic aneurysm induction part: Example 2, FIG. 2, after completion of the test, control group about 4 MM
Protocol: SD-male rats of 4 weeks old (70 to 90 G) were used. Eighteen rats and eight rats were prepared as a control group and a medium chain fatty acid administration group, respectively.
Upon arrival, all rats were preliminarily fed normal feed without additional supplements for one week. Then, the medium chain fatty acid administration group was fed normal feed and forcibly administered with high-content neutral fats (decanoic acid occupied 98% of constituent fatty acids) in an amount of 1,145 MG/KG body-weight/day. The control group was fed normal feed and forcibly administered with water in an amount of 1,145 MG/KG body-weight/day.
In this test, the medium chain fatty acid was fed in the form of tricaprin. Tricaprin is a substance in which decanoic acid (C10), a linear saturated fatty acid having 10 carbon atoms, is bonded to glycerol. Thus, the high-content neutral fats are medium chain fatty acids of the present invention.
From the second week after the arrival, all rats were fed high-fat feed. Then, the medium chain fatty acid administration group was forcibly administered with the high-content neutral fats in an amount of 1,145 MG/KG body-weight/day in addition to the high-fat feed. Furthermore, the control group was forcibly administered with water in an amount of 1,145 MG/KG body-weight/day in addition to the high-fat feed.
Three weeks after the arrival, an abdominal aortic aneurysm induction treatment was performed. In the abdominal aortic aneurysm induction treatment, a catheter is inserted in the rat abdominal aorta and the inserted catheter is ligated with the abdominal aorta. The treatment was performed according to the method disclosed in PTL 3.
After that, for the next four weeks, the control group had been fed the high-fat feed and forcibly administered with water in an amount of 1,145 MG/KG body-weight/day. Furthermore, the medium chain fatty acid administration group had been fed the high-fat feed and forcibly administered with the high-content neutral fats. Then, four weeks after the abdominal aortic aneurysm induction treatment, the rats were dissected.
Note that the abdominal aortic aneurysm was determined to have occurred if the blood vessel at the site where the abdominal aortic aneurysm induction treatment was performed dilated to twice or more its original thickness.
Next, test results obtained by using tricaprin (an ester of three decanoic acids and glycerol) and tricaprylin (an ester of three octanoic acids of C8 and glycerol) as the medium chain fatty acid is shown. The animal model preparation method is the same as that in Example 1. A group in which tricaprin (C10) was given is referred to as a tricaprin administration group and a group in which tricaprylin (C8) was given is referred to as a tricaprylin administration group.
Twenty-three, eleven, and eighteen model animals were prepared as a control group, the tricaprylin administration group, and the tricaprin administration group, respectively.

[2] = tested on: abdominal aortic aneurysm; assay: Regression of established abdominal aortic aneurysm, administration from Day 7 (Example 3); assay type: in vivo, rat
Protocol: SD-male rats of 4 weeks old (70 to 90 G) were used. The rats were subjected to the above-described abdominal aortic aneurysm induction treatment. On Day 7, the abdomen of the rat was opened to confirm the occurrence of an abdominal aortic aneurysm, the vessel diameter was measured, and then the abdomen was closed. Subsequently, a control group was fed normal feed and water, while a tricaprin administration group was fed tricaprin in an amount of 1,145 MG/KG/day in addition to the normal feed.
Seven days after the abdominal closure (Day 14 after the abdominal aortic aneurysm induction treatment), the abdomen was opened again, and the blood vessel diameter was measured. Some rats of the control group were not subjected to laparotomy on Day 14 and continued to be fed normal feed and water. The amount of the neutral fats in the blood vessel, the amount of lipids in the blood, the blood glucose level, and the body weight were measured from the day when the abdominal aortic aneurysm induction treatment was performed.
FIGS. 3(A), 3(B), and 3(C) show the control group (depicted as “CONTROL”), and FIGS. 3(D), 3(E), and 3(F) show the tricaprin administration group (depicted as “C10-TG”).
Photographs under “DAY 0” are photographs taken when the abdominal aortic aneurysm induction treatment was performed (FIG. 3(A) and FIG. 3(D)). […]

[3] = Example 2, number of rats (tricaprylin 11, tricaprin 18 animals)
[4] = Example 2, number of rats (tricaprylin 11, tricaprin 18 animals), dilated to twice or more original thickness

Structure (SMILES)	Frequency of occurrence of abdominal aortic aneurysm ([1]; Example 1, 1,145 MG/KG body-weight/day, control group 38.9) [%]	Rupture rate of abdominal aortic aneurysm ([1]; Example 1) [%]	Rupture confirmed (abdominal aortic aneurysm) ([1]; Example 1)	Rupture not confirmed (abdominal aortic aneurysm) ([1]; Example 1)	Occurrence not confirmed (abdominal aortic aneurysm) ([1]; Example 1, number of rats of 8, 1,145 MG/KG body-weight/day forced administration, high-fat feed, dissected four weeks after induction)	Occurrence confirmed (abdominal aortic aneurysm) ([1]; Example 1, number of rats of 8, vessel dilated to twice or more its original thickness, 1,145 MG/KG body-weight/day)	Survival rate ([1]; during the test period) [%]	Diameter of the aorta in the abdominal aortic aneurysm induction part [1]	Rupture rate of abdominal aortic aneurysm ([1]; Example 2) [%]	Frequency of occurrence of abdominal aortic aneurysm ([1]; Example 2, control group 30.4) [%]	Occurrence not confirmed (abdominal aortic aneurysm) [1, 3]	Occurrence confirmed (abdominal aortic aneurysm) [1, 4]	Rupture confirmed (abdominal aortic aneurysm) ([1]; Example 2)	Rupture not confirmed (abdominal aortic aneurysm) ([1]; Example 2)	Maximum aneurysm diameter ([2]; Day 14, 1,145 MG/KG/day from Day 7, 2.79 MM on Day 7 before administration, control 2.81 to 3.59 MM) [MM]	Weight gain rate versus control group ([2]; Example 3, measured from the day of induction treatment)	Survival rate ([1]; until Day 26 after induction treatment, control declined on Day 17) [%]
CCCCCCCCCC(=O)OCC(COC(=O)CCCCCCCCC)OC(=O)CCCCCCCCC [Tricaprin, tricaprin]	12.5	0	0	1	7	1	100	about 2.2 MM	0	5.6	17	1	0	1	1.89	no difference	–
CCCCCCCC(=O)OCC(COC(=O)CCCCCCC)OC(=O)CCCCCCC [Tricaprylin, tricaprylin]	–	–	–	–	–	–	–	about 3.5 MM	33.3	27.3	8	3	1	2	–	–	100
